The term pEC50 denotes the EC50 on a negative log10 scale, so that one unit is a factor of ten. Read a high pEC50 as a small EC50.

Each structure is given as a SMILES string. pEC50: −log10 of the molar value.

In this experiment the target is T1, mutant integrin CD11bE320A/CD18 (Homo sapiens, UniProt P11215, E336A).
T1 construct: expressed in transfected cells; host or cells: K562 (ATCC)
T1 sequence (P11215 17-1152 E336A): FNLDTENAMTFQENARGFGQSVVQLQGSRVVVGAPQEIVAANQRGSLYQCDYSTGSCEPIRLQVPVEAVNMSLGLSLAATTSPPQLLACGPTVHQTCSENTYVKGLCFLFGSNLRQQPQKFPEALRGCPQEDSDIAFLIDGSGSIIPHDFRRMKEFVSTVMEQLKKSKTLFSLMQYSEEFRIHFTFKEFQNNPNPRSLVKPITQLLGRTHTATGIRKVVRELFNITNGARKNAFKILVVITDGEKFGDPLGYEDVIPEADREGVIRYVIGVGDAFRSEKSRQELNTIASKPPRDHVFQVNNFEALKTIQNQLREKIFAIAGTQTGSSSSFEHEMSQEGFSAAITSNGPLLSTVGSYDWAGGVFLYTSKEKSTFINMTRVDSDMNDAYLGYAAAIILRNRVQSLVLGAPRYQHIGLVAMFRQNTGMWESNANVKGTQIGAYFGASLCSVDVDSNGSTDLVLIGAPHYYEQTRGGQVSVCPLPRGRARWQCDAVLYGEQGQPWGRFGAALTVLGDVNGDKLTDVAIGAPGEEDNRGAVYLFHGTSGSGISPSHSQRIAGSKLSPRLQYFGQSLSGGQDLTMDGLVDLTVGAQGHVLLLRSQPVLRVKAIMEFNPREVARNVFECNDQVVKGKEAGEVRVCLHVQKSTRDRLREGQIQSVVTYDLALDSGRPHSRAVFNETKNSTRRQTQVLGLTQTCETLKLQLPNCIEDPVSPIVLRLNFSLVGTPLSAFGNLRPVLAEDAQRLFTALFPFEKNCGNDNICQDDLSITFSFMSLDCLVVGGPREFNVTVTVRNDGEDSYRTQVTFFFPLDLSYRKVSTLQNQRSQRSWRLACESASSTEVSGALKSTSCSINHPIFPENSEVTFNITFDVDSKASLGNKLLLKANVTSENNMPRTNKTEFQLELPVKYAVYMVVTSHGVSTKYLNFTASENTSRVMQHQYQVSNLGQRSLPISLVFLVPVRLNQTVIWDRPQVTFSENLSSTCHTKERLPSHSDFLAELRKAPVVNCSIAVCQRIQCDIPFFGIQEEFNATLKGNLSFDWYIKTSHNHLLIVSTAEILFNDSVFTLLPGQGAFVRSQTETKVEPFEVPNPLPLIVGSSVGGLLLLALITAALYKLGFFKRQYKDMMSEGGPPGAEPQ
T1 sequence (P05107 23-769 partner): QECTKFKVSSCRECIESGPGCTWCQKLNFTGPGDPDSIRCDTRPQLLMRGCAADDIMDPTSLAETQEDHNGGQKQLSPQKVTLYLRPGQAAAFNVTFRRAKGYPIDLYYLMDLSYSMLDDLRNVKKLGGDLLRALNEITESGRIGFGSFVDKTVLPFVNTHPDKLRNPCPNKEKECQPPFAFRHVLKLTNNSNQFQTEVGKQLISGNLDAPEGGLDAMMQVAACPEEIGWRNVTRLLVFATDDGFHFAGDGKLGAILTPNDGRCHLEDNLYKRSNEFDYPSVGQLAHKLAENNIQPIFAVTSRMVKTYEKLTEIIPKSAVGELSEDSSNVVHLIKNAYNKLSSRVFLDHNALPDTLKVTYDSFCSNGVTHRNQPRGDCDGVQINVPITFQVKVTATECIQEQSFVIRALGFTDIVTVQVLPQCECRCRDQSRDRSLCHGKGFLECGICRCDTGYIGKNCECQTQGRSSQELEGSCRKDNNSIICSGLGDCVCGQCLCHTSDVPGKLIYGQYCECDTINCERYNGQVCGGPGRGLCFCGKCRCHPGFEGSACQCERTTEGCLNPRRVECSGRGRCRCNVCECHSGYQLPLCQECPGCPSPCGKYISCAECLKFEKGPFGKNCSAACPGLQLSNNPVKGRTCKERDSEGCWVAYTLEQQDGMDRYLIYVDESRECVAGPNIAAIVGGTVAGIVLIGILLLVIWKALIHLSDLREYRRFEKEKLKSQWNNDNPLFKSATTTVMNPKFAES
Kind of experiment: HTS cell adhesion assay, K562 E320A cells on immobilized fibrinogen. The class given is cell-based. The conditions noted are these: Table 3, adhesion to fibrinogen, five point dose-response. How it is done: K562 cells stably expressing CD11c/CD18 (K562 CD11c/CD18) were generated similarly. […] K562 cells stably transfected with mutant integrin CD11bE320A/CD18 (K562 E320A) were generated according to literature protocols. All cell lines were maintained in Iscove's Modified Dulbecco's Medium (IMDM) supplemented with 10% heat-inactivated fetal bovine serum, 50 IU/mL penicillin and streptomycin and 0.5 mg/mL G418.
Cell adhesion assays with immobilized ligands were performed using the general protocol previously described and as illustrated in FIG. 1 [33]. Assays with all different K562 cell lines (K562, K562 CD11b/CD18, K562 CD11c/CD18 and K562 E320A) were performed in an identical fashion. Briefly, 384-well microplates (Corning 3700) were coated with 15 μg/mL fibrinogen (Fg) ligand in PBS^++ overnight at 4° C. At the same time, anti-CD18 (IB4) mAb was also coated. Subsequently, the coated wells were washed with 1% nonfat milk in TBS at room temperature for 1 hour. Next, the wells were washed 3 times with TBS, and the coated microplates were used in the HTS assays.
K562 CD11b/CD18, K562 CD11bE320A/CD18 and K562 CD11c/CD18 cells were washed with TBS, and cells were transferred to the Fg-coated wells of microplates in the assay buffer (Ca^2+ and Mg^2+ for physiological condition, Mn^2+ as the Positive control). A 1 μL aliquot of the compounds were transferred to each washed well with multichannel pipet from the 384-well plates.
The assay plates were incubated at 37° C. in the presence of small-molecule compounds for 30 min. To dislodge the non-adherent cell, the assay plates were gently inverted and kept in inverted position for 20 min at room temperature.
The cells were fixed with 37% formaldehyde in a small volume and the plates were kept inverted for 1 h. Upon the fixation, the solutions in the well were discarded. Next, the cells were fluorescently labeled with DAPI (0.5 μM final in TBS with 0.1% Triton X-100) and the quantitated with “Opera High Content Screening System” (Perkin Elmer).
Cell-adhesion under positive and negative control conditions was used to define the activity scale; signal corresponding to the number of non-small molecule treated cells adherent in activating buffer condition (in the presence of Mn^2+ ions as agonist, PC) was considered maximum (100% binding) and the signal corresponding to the number of non-small molecule treated cells adherent in basal buffer condition (in the presence of 1 mM each of Ca^2+ and Mg^2+, NC) was considered minimum (0% binding).
For the compound `N#Cc1c(-c2ccccc2)cc(-c2ccco2)c(C#N)c1N` [Compound 625239], the pEC50 is 5.11. The same measure, in the same setting: as for `Cc1ccccc1-c1ccc(Nc2ccc(N3CCOCC3)cc2)nn1` [Compound 646977], the figure is 5.00; as for `COc1ccc2nc(O)c(CN(C3CCCCC3)C(c3nnnn3Cc3ccco3)C(C)C)cc2c1` (stereo not drawn) [Compound 650199], 4.87; as for `Cc1csc(NC(=O)CSc2nc3sc(C)c(C)c3c(=O)[nH]2)n1` [Compound 650604], 5.03. `CCOc1ccc(C(=O)Nc2ccc(N3CCCC3)cc2)cc1` [Compound 650825]: the pEC50 was 5.01. On the same count and under the same terms, as for `CCC1CCCCN1S(=O)(=O)c1ccc(S(=O)(=O)N2CCN(S(=O)(=O)CC)CC2)cc1` (stereo not drawn) [Compound 651007], the figure is 5.09; as for `CN(C)c1ccc(NC(=O)CN2C(=O)CC(c3ccccc3)=Nc3ccccc32)cc1` [Compound 656131], 5.00. On the same count and under the same terms, the figure for `C=CCOC(=O)C(C#N)c1nc2ccccc2nc1N1CCN(Cc2ccc3c(c2)OCO3)CC1` (stereo not drawn) [Compound 660507] is 4.73. `Cc1cc(C)cc(-n2c3nc4ccccc4nc3c3c(=O)n(Cc4ccco4)cnc32)c1` [Compound 660761] had a pEC50 of 5.06. `COc1ccc(-n2c(SCC(=O)Nc3nccs3)nc3sc4c(c3c2=O)CCN(C)C4)cc1` [Compound 664564]: the pEC50 is 4.69. The compound `CSc1nc(NCCOCCO)c2sc3nc(-c4ccco4)c4c(c3c2n1)CCC4` [Compound 665043] gave a pEC50 of 5.03. On the same count and under the same terms, the figure for `CC(=O)c1ccc(N2C(=O)C3C(C2=O)C(C(=O)c2ccc(Cl)cc2)N2CCCC32)cc1` (stereo not drawn) [Compound 665589] is 4.84. Compound `COc1ccc(OC)c(NS(=O)(=O)Cc2ccccc2)c1` [Compound 743624] gave a pEC50 of 4.80. Still for that read-out and setting: as for `O=C(NCc1ccco1)c1c2c(nc3ccccc13)CCC2` [Compound 862194], the figure is 4.82. In turn, `COc1ccc(C(=O)Nc2ccc(N3CCCC3)cc2)cc1` [Compound 960708] gave a pEC50 of 3.99. As for `O=C(CNS(=O)(=O)c1cccc(Cl)c1)Nc1ccc(-c2nc3ccccc3s2)cc1` [Compound 984329], the pEC50 was 5.03. The compound `NS(=O)(=O)c1ccc(NC(=S)NC(=O)c2ccc(-c3ccccc3)cc2)cc1` [Compound 1011163] had a pEC50 of 4.89. The same measure, in the same setting: the figure for `O=C1NN(c2ccc(Cl)c(Cl)c2)C(=O)/C1=C/c1cccc(OC(=O)c2cccs2)c1` [Compound 1016780] is 5.11.

`COc1ccc2c(c1)cc(C)c1nnc(SCC(=O)N(C)c3nc(-c4ccccc4)cs3)n12` [Compound 1135734]: the pEC50 is 5.03. For `Cc1ccc2sc(-c3ccc(NC(=O)CCN4C(=O)c5ccccc5C4=O)cc3)nc2c1` [Compound 1193278], the pEC50 is 5.29.

`COc1ccc(N=c2oc3ccc(OC)cc3cc2-c2nc3ccccc3[nH]2)cc1` [Compound 1212121] gave a pEC50 of 4.72. Consider `CCN(CC)C(=O)c1sc(NC(=O)c2cc(-c3ccc(C)s3)nc3ccccc23)c(C(=O)OC)c1C` [Compound 1219756], for which the pEC50 was 5.00. `CC(=O)NC(=S)Nc1ccc(-c2nc3ccc(C)cc3s2)cc1` [Compound 1226649] gave a pEC50 of 5.07. The same measure, in the same setting: as for `O=C(Nc1ccc(Br)cc1Cl)c1cnccn1` [Compound 1245695], the figure is 5.07.

`CCCC(=O)Nc1ccc(-c2cnc(-c3ccc(NC(=O)CCC)cc3)nc2)cc1` [Compound 1272696]: the “EC50 E320A” value was “Infinite”. The compound `Cc1nn2c(-c3cccc(NC(=O)CSc4nc5ccccc5o4)c3)nnc2c2ccccc12` [Compound 1290769] had a pEC50 of 5.11. Same read-out and setting: the figure for `COc1ccc(-c2nn(C)c(=O)c3ccccc23)cc1NC(=O)Cn1nc(C)c2ccccc2c1=O` [Compound 1314910] is 4.93; for `O=C(CSc1nc2sc3c(c2c(=O)n1-c1ccccc1)CCCC3)NCc1ccco1` [Compound 1322134] it is 4.92; for `O=C(/C=C/c1ccc(Cl)cc1)NC(=S)Nc1ccc(N2CCOCC2)c(Cl)c1` [Compound 1345254] it is 5.12. On the same count and under the same terms, as for `Cc1cc(C=C2C(=O)N(C)C(=S)N(C)C2=O)c(C)n1C1CCCCC1` [Compound 1347165], the figure is 3.77; as for `Cc1ccnc(N/C=C(\C#N)c2nc(-c3cccc(Br)c3)cs2)c1` [Compound 1352154], 5.10. In the case of `Cc1ccc(-c2cc(C(=O)Nc3ccc(S(=O)(=O)Nc4nccs4)cc3)c3ccccc3n2)c(C)c1` [Compound 1358622], the pEC50 was 4.86. The compound `Cc1cc(/C=C2\C(=O)NC(=O)N(c3ccc(Cl)cc3)C2=O)c(C)n1-c1sc2c(c1C#N)CCCC2` [Compound 1418314] had a pEC50 of 5.02. In turn, `Cc1ccc2nc3sc(C(=O)Nc4ccc(N5CCOCC5)cc4)c(N)c3cc2c1` [Compound 1442651] had a pEC50 of 4.97.

Take `C=CCn1c(SCC(=O)Nc2sccc2C#N)nc2sc(C)c(C)c2c1=O` [Compound 1564171]: the pEC50 is 4.83. `Cc1ccc(-c2cc(C(=O)N/N=C/C=C/c3ccco3)c3ccccc3n2)cc1C` [Compound 1764811] had a pEC50 of 4.71. Same read-out and setting: the figure for `CCCSc1nnc(NC(=O)c2sc3nc(-c4cccs4)ccc3c2N)s1` [Compound 1773030] is 5.11; for `COc1ccc(/C=c2\sc3nc(-c4ccccc4OC)nn3c2=O)c(OC)c1` [Compound 1827856] it is 5.15; for `O=c1nc2s/c(=C\c3ccco3)c(=O)n2nc1Cc1ccc(F)cc1` [Compound 1844411] it is 5.15.

`Cc1ccc(/C=C2\SC(=S)N(CC(=O)Nc3ncc(Cc4ccccc4Cl)s3)C2=O)cc1` [Compound 1871747] gave a pEC50 of 4.81. With `CCOC(=O)c1[nH]c2ccc(Cl)cc2c1NC(=O)/C=C/c1ccc2c(c1)OCO2` [Compound 1973614], the pEC50 is 4.36.

In the case of `Nc1c(C(=O)Nc2cccc(Cl)c2Cl)sc2nc(-c3cccnc3)ccc12` [Compound 1976060], the pEC50 was 6.50.

`O=C1NC(=S)N(C2CC2)C(=O)/C1=C/c1ccc2c(c1)CCN2CCCCl` [Compound 1993471] gave a pEC50 of 3.79. For `O=C1NC(=O)N(c2ccc(F)cc2)C(=O)/C1=C/c1ccc2c(c1)CCCN2Cc1ccccc1` [Compound 1997460], the pEC50 is 5.21. Consider `COc1ccc2c(c1)c1nc3ccccc3nc1n2Cc1ccc(OC)c(OC)c1` [Compound 2023256], for which the pEC50 was 4.58. Same read-out and setting: the figure for `O=C(CN1CCc2ccccc21)Nc1ccc2c(c1)OCO2` [Compound 2064203] is 5.05; for `CCCCN1C(=O)/C(=C/c2ccc(N3CCCCCC3)cc2)C(=O)NC1=S` [Compound 2067755] it is 4.11. Compound `CCN(CC)c1ccc(C(=O)OCC(=O)Nc2cc3oc4ccccc4c3cc2OC)cc1` [Compound 2078838] had a pEC50 of 4.14. Still for that read-out and setting: the figure for `O=C(Nc1nc(-c2ccncc2)cs1)c1ccco1` [Compound 2081288] is 4.90; for `COc1cc2c(cc1NC(=O)c1cc(-c3ccncc3)nc3ccccc13)oc1ccccc12` [Compound 2098333] it is 6.36; for `COc1ccc(-n2c(C)cc(C(=O)COC(=O)c3cc(NC(=O)c4cccs4)c(OC)c(OC)c3)c2C)cc1` [Compound 2108710] it is 4.20.

For `NC(=O)c1cc(-c2ccccc2)sc1NC(=O)Cc1ccc(S(=O)(=O)N2CCOCC2)s1` [Compound 2121076], the pEC50 is 4.71. As for `Cc1ccc(/C=C/C(=O)Nc2nnc(SCc3ccc(C#N)cc3)s2)o1` [Compound 2126150], the “EC50 E320A” value was “Infinite”. On to `CCOC(=O)c1sc(NC(=O)CSc2nnnn2-c2ccccc2)c(C(=O)OCC)c1C` [Compound 2132989], for which the pEC50 was 4.74. `Cc1oc(-c2ccc(Cl)cc2)cc1-c1nn2c(-c3ccoc3C)nnc2s1` [Compound 2145570] gave a negative-log EC50 (pEC50) of 5.08. In turn, `Cc1oc(-c2ccc(F)cc2)cc1-c1nn2c(-c3ccoc3C)nnc2s1` [Compound 2145571] showed a pEC50 of 4.92. Still for that read-out and setting: the figure for `CCOc1cc(/C=C2/N=C(c3ccc(C(C)(C)C)cc3)OC2=O)cc(Cl)c1OS(C)(=O)=O` [Compound 2182821] is 5.07; for `Cn1c(SCC(=O)Nc2ccc3c(c2)oc2ccccc23)nnc1-c1ccccc1` [Compound 2193118] it is 4.42; for `O=C(Nc1ccc2nn(-c3ccccc3)nc2c1)c1ccc2c(c1)OCO2` [Compound 2208079] it is 3.25.

The compound `Cc1cc(C=C2C(=O)CCCC2=O)c(C)n1-c1ccccc1` [Compound 2313216] showed a pEC50 of 4.55.
